Several values for one entry are separate records, joined by “and”; a condition that tells them apart may be missing. Equal values may be shown once. Entries after “also recorded” stand apart in the source; their conditions may differ.
What was measured:
[1] = target: FAP1 (Homo sapiens, UniProt Q12923); test: biochemical; type: biochemical
[2] = target: T1, PTP1B (Homo sapiens, UniProt P18031); test: biochemical; type: biochemical
T1 sequence (P18031 1-435): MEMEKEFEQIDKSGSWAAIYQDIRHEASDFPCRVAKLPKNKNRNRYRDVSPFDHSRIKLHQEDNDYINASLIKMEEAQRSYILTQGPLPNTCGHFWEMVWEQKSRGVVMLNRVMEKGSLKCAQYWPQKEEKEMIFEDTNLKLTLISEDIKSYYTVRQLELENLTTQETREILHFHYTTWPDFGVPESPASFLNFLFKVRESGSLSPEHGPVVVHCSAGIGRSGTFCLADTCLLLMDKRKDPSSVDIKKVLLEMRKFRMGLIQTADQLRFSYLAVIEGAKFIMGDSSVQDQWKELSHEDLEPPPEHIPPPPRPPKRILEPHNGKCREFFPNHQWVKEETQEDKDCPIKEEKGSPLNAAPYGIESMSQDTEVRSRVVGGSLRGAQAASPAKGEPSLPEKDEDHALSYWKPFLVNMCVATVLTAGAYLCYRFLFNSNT

[3] = target: T2, CD45 (Homo sapiens, UniProt P08575); test: biochemical; type: biochemical
T2 sequence (P08575 26-1306): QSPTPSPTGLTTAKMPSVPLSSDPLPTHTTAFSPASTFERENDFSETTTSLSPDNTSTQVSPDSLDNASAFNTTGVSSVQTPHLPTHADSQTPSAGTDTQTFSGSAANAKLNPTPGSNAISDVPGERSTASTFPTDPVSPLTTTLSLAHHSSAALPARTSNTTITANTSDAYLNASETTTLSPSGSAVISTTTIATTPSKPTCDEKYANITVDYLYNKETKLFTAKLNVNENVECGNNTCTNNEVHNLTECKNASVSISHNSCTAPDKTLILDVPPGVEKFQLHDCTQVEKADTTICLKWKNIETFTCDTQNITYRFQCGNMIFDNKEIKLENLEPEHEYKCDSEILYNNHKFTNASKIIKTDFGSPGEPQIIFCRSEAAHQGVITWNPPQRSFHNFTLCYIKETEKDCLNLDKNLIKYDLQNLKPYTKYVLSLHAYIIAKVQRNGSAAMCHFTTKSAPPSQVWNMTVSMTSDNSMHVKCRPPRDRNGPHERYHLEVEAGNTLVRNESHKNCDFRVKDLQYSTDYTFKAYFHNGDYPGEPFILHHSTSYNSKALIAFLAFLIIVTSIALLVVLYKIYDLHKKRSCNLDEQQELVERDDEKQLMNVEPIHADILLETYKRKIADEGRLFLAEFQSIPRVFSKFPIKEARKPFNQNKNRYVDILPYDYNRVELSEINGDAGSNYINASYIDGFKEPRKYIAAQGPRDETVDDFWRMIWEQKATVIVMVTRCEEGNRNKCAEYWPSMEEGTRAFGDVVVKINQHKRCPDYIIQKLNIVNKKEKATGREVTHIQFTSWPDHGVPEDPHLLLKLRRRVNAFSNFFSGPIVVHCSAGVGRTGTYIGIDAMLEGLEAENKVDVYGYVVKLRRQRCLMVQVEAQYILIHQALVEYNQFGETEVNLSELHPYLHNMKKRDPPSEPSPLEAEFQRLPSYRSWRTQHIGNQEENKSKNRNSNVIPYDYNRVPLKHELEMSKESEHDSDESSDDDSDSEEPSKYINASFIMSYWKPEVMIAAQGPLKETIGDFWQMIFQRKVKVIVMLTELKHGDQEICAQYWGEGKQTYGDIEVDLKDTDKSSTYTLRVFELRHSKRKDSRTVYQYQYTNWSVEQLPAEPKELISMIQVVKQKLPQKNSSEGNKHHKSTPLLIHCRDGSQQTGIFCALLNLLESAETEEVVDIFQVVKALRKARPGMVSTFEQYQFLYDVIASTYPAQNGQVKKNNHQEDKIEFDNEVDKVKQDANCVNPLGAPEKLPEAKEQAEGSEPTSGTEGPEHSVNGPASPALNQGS

[4] = target: T3, VHX (Homo sapiens, UniProt Q9NRW4); test: biochemical; type: biochemical
T3 sequence (Q9NRW4 1-184): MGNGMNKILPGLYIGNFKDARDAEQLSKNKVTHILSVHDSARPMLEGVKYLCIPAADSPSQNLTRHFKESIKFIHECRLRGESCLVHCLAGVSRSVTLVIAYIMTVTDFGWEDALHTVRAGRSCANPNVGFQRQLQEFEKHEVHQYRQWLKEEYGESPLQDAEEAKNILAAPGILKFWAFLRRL

[5] = target: SHP2 (Homo sapiens, UniProt Q06124); conditions: read-out: IC50 (μM) SHP2
SHP2, sequence (Q06124 whole entry, species assumed): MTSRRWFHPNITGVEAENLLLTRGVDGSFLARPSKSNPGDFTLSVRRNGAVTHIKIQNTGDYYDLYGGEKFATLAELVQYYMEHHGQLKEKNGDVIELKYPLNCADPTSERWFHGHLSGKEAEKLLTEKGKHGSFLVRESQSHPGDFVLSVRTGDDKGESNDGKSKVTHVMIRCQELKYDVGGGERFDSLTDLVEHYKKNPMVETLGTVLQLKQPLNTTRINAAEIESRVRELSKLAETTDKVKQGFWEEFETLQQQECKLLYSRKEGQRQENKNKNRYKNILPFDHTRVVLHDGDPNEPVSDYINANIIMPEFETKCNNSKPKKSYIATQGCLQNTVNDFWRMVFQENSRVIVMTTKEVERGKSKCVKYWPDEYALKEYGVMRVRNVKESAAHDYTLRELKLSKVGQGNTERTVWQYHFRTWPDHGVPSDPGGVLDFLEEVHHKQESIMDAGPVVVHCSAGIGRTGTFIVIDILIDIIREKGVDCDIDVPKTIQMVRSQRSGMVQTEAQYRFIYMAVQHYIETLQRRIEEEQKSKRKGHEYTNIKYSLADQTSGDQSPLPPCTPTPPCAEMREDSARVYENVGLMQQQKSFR

[6] = target: LMWPTP (Homo sapiens, UniProt P24666); test: PTP selectivity panel: LMWPTP; type: biochemical
LMWPTP, sequence (P24666 whole entry, species assumed): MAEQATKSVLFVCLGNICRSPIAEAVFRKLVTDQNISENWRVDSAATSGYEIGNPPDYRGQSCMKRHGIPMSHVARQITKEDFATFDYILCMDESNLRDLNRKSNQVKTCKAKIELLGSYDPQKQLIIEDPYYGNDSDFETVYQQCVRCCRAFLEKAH

[7] = system: Caspase 3 activity in macrophage cells expressing mPTPB; type: cell-based; conditions: especially at 120 and 240 nM
[8] = target: T4, mPTPB (Mycobacterium tuberculosis, UniProt I6WXK4); test: biochemical; type: biochemical
T4 construct: The full-length mPTPB with a N-terminal His6-tag was expressed and purified; His6 (N); made in house; host or cells: E. coli BL21/DE3 (pET28b-mPTPB)
T4 sequence (I6WXK4 1-276): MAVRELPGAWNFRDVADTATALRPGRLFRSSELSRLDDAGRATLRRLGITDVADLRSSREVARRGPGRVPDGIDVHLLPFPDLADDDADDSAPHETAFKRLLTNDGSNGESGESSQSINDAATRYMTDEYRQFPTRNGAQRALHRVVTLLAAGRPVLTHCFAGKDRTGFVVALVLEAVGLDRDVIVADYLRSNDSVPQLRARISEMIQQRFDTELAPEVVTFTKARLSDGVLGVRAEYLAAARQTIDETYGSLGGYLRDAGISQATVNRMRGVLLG

FAP1, sequence (Q12923 whole entry, species assumed): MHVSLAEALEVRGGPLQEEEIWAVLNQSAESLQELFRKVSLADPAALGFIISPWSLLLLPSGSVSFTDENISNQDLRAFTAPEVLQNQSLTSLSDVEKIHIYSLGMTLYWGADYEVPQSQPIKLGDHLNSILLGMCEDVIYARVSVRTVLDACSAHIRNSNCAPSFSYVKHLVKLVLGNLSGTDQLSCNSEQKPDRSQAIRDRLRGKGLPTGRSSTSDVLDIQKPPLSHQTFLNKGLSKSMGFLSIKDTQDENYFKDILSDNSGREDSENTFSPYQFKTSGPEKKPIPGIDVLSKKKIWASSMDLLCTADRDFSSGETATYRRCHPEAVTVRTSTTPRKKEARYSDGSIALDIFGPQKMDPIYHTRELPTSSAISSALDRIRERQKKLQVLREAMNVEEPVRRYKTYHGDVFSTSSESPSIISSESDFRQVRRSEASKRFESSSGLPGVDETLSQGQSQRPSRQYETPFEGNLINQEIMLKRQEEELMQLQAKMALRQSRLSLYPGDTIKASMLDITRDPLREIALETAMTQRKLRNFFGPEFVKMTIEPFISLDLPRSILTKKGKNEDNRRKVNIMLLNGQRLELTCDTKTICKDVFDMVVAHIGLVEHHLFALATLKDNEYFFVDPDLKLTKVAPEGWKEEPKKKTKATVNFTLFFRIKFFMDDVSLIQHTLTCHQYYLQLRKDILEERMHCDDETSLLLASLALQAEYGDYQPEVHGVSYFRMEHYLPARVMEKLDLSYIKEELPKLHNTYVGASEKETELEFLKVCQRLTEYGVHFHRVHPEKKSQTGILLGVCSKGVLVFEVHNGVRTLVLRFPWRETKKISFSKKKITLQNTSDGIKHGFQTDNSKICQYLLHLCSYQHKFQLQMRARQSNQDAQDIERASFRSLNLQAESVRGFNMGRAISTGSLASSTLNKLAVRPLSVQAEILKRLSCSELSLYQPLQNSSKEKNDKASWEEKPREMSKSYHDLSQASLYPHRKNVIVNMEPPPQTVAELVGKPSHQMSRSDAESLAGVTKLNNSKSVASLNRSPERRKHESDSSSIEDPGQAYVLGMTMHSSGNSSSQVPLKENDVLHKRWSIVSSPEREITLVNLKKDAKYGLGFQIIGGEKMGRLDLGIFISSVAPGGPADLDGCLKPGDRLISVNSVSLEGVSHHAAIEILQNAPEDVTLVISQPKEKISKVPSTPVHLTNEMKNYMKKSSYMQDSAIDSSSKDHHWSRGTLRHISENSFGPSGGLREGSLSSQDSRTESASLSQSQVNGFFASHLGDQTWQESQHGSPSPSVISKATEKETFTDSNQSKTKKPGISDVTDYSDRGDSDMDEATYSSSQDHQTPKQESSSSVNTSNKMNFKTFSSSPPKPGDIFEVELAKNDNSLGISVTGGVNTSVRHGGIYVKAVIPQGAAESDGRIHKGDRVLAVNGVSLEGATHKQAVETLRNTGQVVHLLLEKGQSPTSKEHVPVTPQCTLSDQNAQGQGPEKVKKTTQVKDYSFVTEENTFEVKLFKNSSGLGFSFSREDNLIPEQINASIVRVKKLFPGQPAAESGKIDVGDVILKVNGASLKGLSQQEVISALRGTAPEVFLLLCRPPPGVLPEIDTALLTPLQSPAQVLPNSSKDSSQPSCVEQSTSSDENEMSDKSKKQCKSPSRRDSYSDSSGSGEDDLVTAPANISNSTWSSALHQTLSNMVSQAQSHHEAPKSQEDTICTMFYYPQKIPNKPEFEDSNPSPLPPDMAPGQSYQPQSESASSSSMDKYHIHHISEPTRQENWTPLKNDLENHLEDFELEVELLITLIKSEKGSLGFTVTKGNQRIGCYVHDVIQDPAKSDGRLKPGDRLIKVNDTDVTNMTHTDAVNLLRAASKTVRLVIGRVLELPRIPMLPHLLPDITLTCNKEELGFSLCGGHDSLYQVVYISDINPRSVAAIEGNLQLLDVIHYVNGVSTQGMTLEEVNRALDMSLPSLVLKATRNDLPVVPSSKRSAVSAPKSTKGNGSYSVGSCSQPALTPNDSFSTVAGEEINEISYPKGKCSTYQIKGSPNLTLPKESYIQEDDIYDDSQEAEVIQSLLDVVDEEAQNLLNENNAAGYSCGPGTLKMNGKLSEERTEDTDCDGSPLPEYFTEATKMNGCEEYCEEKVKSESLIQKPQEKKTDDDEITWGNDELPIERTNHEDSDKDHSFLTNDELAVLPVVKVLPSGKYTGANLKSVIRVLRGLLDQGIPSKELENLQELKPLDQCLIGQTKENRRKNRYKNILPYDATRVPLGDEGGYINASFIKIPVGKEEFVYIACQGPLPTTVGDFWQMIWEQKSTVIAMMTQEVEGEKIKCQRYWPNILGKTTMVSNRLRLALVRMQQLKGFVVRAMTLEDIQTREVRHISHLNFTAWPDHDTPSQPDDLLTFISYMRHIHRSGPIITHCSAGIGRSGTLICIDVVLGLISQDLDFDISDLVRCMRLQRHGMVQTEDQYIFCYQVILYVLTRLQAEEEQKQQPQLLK

O=C(O)c1cc2c(C#Cc3cccc(C(F)(F)F)c3)c(-c3ccccc3)oc2cc1O [32 (L01Z08)]
IC50 [1]: 1.3 ± 0.2 µM
IC50 [2]: 6.7 ± 0.7 µM
IC50 [3]: 4.2 ± 0.5 µM
IC50 [4]: 1.4 ± 0.2 µM
IC50 [5]: 1.8 ± 0.2 µM
IC50 [6]: 4.3 ± 0.6 µM
caspase 3 activity [7]: returns caspase 3 activity to near normal levels

Cn1c(-c2ccccc2C(F)(F)F)c(I)c2cc(C(=O)O)c(O)cc21 [Compound 207a, 6-hydroxy-3-iodo-1-methyl-2-(2-(trifluoromethyl)phenyl)-1H-indole-5-carboxylic acid]
IC50 [1]: 84 ± 1 µM
IC50 [2]: 700 ± 100 µM
IC50 [3]: 227 ± 4 µM
mode of mPTPB inhibition ([8]; kinetic analyses, Lineweaver-Burk plot): Non-competitive inhibition; also recorded: reversible and noncompetitive inhibitor
Ki ([8]; pH 7.0, 25° C.): 1.21 ± 0.04 µM
IC50 ([8]; pNPP substrate, pH 7.0, 25° C., read-out: IC50 (μM) against mPTPB): 1.2 µM and 1.18 µM
selectivity for mPTPB over the other ten PTPs ([8]; panel of 11 PTPs): 47 fold
IC50 [4]: 56 ± 1 µM

Reference: patent publication US9493436B2, “Tyrosine phosphatase inhibitors and uses thereof to modulate the activity of enzymes involved in the pathology of Mycobacterium tuberculosis” (priority 2011, dated 2016)
